Assays:
[1] = target: T1, HiBiT-BRM fusion protein in stable HeLa cell line (Homo sapiens, UniProt P51531); test: HiBiT-BRM cell-based degradation assay (Nano-Glo HiBiT Lytic Detection, 24 h); design: DC50: scale not given here; conditions: HeLa HiBiT-BRM cells; for DC50: read-out: BRM HiBit Degradation IC50; for BRM HiBit Degradation Maximum (%): top dose 30 μM
T1 construct: expressed in transfected cells
Summary of the method: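 Stable HiBiT-BRM HeLa cells were treated with 10-point 3-fold serial dilutions (30 μM final top dose, duplicate) for 24 h, then lysed with LgBiT-containing detection reagent and luminescence read. Degradation % was normalised to DMSO (high control) and 2 μM reference BRM/BRG1 degrader (low control).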

[2] = target: T2, HiBit-BRG1 fusion protein in stable HeLa cell line expressing HiBit-BRG1 and LgBit (Homo sapiens, UniProt P51532); test: HiBiT-BRG1 cell-based degradation assay (Nano-Glo HiBiT, 24 h); conditions: HeLa HiBit-BRG1/LgBit cells; for Dmax / BRG1 HiBit Degradation Maximum (%): top dose 30 μM; for Dmax: read-out: BRG1 HiBit Degradation Maximum (%); for DC50: read-out: BRMG1 HiBit Degradation IC50
T2 construct: expressed in transfected cells
Summary of the method: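 Stable HeLa line co-expressing HiBiT-BRG1 and LgBiT, compound-treated 24 h; luminescence read after Nano-Glo HiBiT lytic reagent. % degradation normalised between DMSO (high control) and 2 μM reference BRM/BRG1 degrader (low control).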

T1 sequence (P51531 whole entry, the tested form may be a part): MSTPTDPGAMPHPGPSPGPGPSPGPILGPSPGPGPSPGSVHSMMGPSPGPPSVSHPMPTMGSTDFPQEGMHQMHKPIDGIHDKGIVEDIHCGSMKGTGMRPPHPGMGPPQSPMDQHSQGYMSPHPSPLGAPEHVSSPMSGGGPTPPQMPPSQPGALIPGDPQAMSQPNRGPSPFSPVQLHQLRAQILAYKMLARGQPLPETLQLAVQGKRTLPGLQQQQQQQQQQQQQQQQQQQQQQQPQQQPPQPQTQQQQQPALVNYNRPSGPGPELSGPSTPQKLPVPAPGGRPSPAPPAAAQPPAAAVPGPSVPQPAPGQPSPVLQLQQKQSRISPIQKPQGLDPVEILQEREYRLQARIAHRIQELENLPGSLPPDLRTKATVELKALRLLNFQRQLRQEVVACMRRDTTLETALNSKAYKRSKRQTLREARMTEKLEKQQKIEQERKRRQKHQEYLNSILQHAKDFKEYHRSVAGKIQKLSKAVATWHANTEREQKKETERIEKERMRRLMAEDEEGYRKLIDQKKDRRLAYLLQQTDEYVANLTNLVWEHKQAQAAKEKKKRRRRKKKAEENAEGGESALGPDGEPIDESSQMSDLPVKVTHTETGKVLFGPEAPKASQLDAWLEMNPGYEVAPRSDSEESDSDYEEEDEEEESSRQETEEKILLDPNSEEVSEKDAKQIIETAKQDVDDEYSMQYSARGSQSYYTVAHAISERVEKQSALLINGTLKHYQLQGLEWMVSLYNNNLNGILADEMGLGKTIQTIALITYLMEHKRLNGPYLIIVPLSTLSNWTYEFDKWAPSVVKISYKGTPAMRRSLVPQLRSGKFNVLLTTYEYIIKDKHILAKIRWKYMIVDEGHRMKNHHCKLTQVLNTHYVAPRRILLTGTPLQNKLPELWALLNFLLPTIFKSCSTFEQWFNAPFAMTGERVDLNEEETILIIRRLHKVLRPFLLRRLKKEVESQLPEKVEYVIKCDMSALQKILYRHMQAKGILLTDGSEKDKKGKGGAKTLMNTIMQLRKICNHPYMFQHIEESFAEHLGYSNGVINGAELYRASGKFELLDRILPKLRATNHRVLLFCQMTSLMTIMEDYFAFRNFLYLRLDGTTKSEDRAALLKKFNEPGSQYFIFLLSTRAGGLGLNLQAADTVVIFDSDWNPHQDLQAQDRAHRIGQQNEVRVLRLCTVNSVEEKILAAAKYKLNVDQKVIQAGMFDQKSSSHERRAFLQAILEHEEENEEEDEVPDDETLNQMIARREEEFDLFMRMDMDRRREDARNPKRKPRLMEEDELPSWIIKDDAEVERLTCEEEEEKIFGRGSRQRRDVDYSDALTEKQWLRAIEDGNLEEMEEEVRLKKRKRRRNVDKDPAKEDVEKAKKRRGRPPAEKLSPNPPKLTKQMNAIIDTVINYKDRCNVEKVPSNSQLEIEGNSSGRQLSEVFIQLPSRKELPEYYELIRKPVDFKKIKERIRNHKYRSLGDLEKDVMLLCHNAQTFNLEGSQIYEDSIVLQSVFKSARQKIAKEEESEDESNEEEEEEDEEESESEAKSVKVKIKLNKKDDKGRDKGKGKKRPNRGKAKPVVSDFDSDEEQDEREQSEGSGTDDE
T2 sequence (P51532 whole entry, the tested form may be a part): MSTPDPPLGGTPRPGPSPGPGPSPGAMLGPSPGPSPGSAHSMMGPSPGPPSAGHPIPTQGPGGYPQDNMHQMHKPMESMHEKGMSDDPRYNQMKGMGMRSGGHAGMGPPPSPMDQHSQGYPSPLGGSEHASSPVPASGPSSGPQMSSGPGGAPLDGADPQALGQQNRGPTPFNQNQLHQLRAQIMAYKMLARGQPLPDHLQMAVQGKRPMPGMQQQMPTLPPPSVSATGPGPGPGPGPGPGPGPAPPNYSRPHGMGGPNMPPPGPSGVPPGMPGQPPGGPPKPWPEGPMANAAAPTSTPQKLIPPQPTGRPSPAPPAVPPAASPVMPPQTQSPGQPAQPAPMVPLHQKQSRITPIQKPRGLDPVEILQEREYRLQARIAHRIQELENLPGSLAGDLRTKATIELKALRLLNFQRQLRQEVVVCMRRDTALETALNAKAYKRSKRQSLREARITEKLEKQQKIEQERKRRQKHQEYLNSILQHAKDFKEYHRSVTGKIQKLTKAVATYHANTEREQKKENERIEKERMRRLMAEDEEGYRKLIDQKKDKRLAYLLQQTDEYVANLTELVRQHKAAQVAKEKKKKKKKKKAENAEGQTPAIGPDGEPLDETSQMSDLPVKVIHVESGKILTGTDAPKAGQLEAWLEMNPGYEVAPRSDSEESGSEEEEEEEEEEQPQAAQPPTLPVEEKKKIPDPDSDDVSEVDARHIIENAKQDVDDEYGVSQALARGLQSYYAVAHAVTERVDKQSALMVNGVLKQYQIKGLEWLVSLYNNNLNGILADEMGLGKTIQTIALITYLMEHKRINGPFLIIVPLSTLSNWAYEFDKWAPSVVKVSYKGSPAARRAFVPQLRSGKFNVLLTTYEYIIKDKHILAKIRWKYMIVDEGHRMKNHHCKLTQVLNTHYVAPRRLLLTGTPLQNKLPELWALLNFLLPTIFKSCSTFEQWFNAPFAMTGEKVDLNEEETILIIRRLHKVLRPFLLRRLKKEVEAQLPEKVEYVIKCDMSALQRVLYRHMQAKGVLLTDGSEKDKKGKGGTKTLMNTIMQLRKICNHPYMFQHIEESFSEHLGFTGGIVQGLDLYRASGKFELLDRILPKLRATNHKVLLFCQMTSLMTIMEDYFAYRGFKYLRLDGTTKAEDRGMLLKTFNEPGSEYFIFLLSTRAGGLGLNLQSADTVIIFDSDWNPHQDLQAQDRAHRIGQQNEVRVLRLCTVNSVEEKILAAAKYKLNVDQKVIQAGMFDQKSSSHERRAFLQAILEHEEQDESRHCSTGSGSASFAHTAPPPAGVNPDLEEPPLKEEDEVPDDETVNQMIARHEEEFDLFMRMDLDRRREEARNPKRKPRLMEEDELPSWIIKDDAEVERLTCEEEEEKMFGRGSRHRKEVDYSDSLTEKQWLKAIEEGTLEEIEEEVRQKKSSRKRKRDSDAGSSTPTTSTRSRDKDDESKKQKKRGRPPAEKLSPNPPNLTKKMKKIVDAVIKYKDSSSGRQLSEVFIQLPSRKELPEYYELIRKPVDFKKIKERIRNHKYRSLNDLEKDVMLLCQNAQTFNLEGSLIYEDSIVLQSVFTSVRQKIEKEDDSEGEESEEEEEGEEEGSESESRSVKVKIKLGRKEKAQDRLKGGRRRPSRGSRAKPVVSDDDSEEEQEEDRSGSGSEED

| SMILES | DC50 [1] | Dmax [2] | DC50 [2] | BRM HiBit Degradation Maximum (%) [1] | BRG1 HiBit Degradation Maximum (%) [2] |
| --- | --- | --- | --- | --- | --- |
| Cc1ncsc1-c1ccc([C@H](C)NC(=O)[C@@H]2C[C@@H](O)CN2C(=O)[C@@H](c2cc(-c3cnc(N4CCC(c5ccc6nnc(-c7ccccc7O)cc6c5)CC4)nc3)no2)C(C)C)cc1 [Compound 42] | > 0.01 µM | < 50% | – | A (“A” indicates maximum degradation ≥75%) | – |
| Cc1ncsc1-c1ccc([C@H](C)NC(=O)[C@@H]2C[C@@H](O)CN2C(=O)[C@H](c2cc(-c3cnc(N4CC(c5ccc6nnc(-c7ccccc7O)cc6c5Cl)C4)nc3)no2)C(C)C)cc1 [Compound 43] | > 0.1 µM | < 50% | – | A (“A” indicates maximum degradation ≥75%) | – |
| Cc1ncsc1-c1ccc([C@H](C)NC(=O)[C@@H]2C[C@@H](O)CN2C(=O)[C@@H](c2cc(-c3cnc(N4CC(c5ccc6nnc(-c7ccccc7O)cc6c5Cl)C4)nc3)no2)C(C)C)cc1 [Compound 44] | > 0.01 µM | < 50% | – | A (“A” indicates maximum degradation ≥75%) | – |
| Cc1ncsc1-c1ccc([C@H](C)NC(=O)[C@@H]2C[C@@H](O)CN2C(=O)[C@H](c2cc(-c3cnc(N4CCN(c5ccc6cc(-c7ccccc7O)nnc6c5)CC4)nc3)no2)C(C)C)cc1 [Compound 46] | > 0.1 µM | – | – | A (“A” indicates maximum degradation ≥75%) | C (“C” indicates maximum degradation <50%) |
| Cc1ncsc1-c1ccc([C@H](C)NC(=O)[C@@H]2C[C@@H](O)CN2C(=O)[C@@H](c2cc(-c3cnc(N4CCN(c5ccc6cc(-c7ccccc7O)nnc6c5)CC4)nc3)no2)C(C)C)cc1 [Compound 47] | – | – | – | A (“A” indicates maximum degradation ≥75%) | C (“C” indicates maximum degradation <50%) |
| Cc1ncsc1-c1ccc([C@H](C)NC(=O)[C@@H]2C[C@@H](O)CN2C(=O)[C@@H](c2cc(N3CCN(c4ccc5cc(-c6ccccc6O)nnc5c4)CC3)no2)C(C)C)cc1 [Compound 54, (2S,4R)-4-hydroxy-1-((R)-2-(3-(4-(3-(2-hydroxyphenyl)cinnolin-7-yl)piperazin-1-yl)isoxazol-5-yl)-3-methylbutanoyl)-N-((S)-1-(4-(4-methylthiazol-5-yl)phenyl)ethyl)pyrrolidine-2-carboxamide] | > 0.01 µM | < 50% | – | B (“B” indicates maximum degradation ≥50%) | – |
| Cc1ncsc1-c1ccc([C@H](C)NC(=O)[C@@H]2C[C@@H](O)CN2C(=O)[C@@H](c2cc(N3CC[C@H](c4ccc5nnc(-c6ccccc6O)cc5c4)C3)no2)C(C)C)cc1 [Compound 55, (2S,4R)-4-hydroxy-1-((R)-2-(3-((R)-3-(3-(2-hydroxyphenyl)cinnolin-6-yl)pyrrolidin-1-yl)isoxazol-5-yl)-3-methylbutanoyl)-N-((S)-1-(4-(4-methylthiazol-5-yl)phenyl)ethyl)pyrrolidine-2-carboxamide] | > 0.01 µM | < 50% | – | B (“B” indicates maximum degradation ≥50%) | – |
| Cc1ncsc1-c1ccc([C@H](C)NC(=O)[C@@H]2C[C@@H](O)CN2C(=O)[C@@H](c2cc(-c3cnc(N4CCC5(CC4)CC(c4ccc6nnc(-c7ccccc7O)cc6c4)C5)nc3)no2)C(C)C)cc1 [Compound 56, (2S,4R)-4-hydroxy-1-((R)-2-(3-(2-(2-(3-(2-hydroxyphenyl)cinnolin-6-yl)-7-azaspiro[3.5]nonan-7-yl)pyrimidin-5-yl)isoxazol-5-yl)-3-methylbutanoyl)-N-((S)-1-(4-(4-methylthiazol-5-yl)phenyl)ethyl)pyrrolidine-2-carboxamide] | < 0.01 µM | > 75% | < 0.01 µM | A (“A” indicates maximum degradation ≥75%) | – |
| Cc1ncsc1-c1ccc([C@H](C)NC(=O)[C@@H]2C[C@@H](O)CN2C(=O)[C@@H](c2cc(N3CCN(c4ccc5nnc(-c6ccccc6O)cc5c4)CC3)no2)C(C)C)cc1 [Compound 57, (2S,4R)-4-hydroxy-1-((R)-2-(3-(4-(3-(2-hydroxyphenyl)cinnolin-6-yl)piperazin-1-yl)isoxazol-5-yl)-3-methylbutanoyl)-N-((S)-1-(4-(4-methylthiazol-5-yl)phenyl)ethyl)pyrrolidine-2-carboxamide] | < 0.01 µM | > 75% | > 0.01 µM | A (“A” indicates maximum degradation ≥75%) | – |
| Cc1ncsc1-c1ccc([C@H](C)NC(=O)[C@@H]2C[C@@H](O)CN2C(=O)[C@@H](c2cc(N3CC[C@@H](c4ccc5cc(-c6ccccc6O)nnc5c4)C3)no2)C(C)C)cc1 [Compound 58, (2S,4R)-4-hydroxy-1-((R)-2-(3-((S)-3-(3-(2-hydroxyphenyl)cinnolin-7-yl)pyrrolidin-1-yl)isoxazol-5-yl)-3-methylbutanoyl)-N-((S)-1-(4-(4-methylthiazol-5-yl)phenyl)ethyl)pyrrolidine-2-carboxamide] | < 0.01 µM | < 50% | – | A (“A” indicates maximum degradation ≥75%) | – |
| Cc1ncsc1-c1ccc([C@H](C)NC(=O)[C@@H]2C[C@@H](O)CN2C(=O)[C@@H](c2cc(N3C[C@@H]4[C@H](C3)[C@H]4c3ccc4cc(-c5ccccc5O)nnc4c3)no2)C(C)C)cc1 [Compound 59, (2S,4R)-4-hydroxy-1-((R)-2-(3-((1R,5S,6S)-6-(3-(2-hydroxyphenyl)cinnolin-7-yl)-3-azabicyclo[3.1.0]hexan-3-yl)isoxazol-5-yl)-3-methylbutanoyl)-N-((S)-1-(4-(4-methylthiazol-5-yl)phenyl)ethyl)pyrrolidine-2-carboxamide] | < 0.01 µM | < 50% | – | A (“A” indicates maximum degradation ≥75%) | – |

More lines, main results first:

| DC50 [1] | Dmax [2] | DC50 [2] | SMILES | BRM HiBit Degradation Maximum (%) [1] | BRG1 HiBit Degradation Maximum (%) [2] |
| --- | --- | --- | --- | --- | --- |
| < 0.01 µM | > 75% | > 0.01 µM | Cc1ncsc1-c1ccc([C@H](C)NC(=O)[C@@H]2C[C@@H](O)CN2C(=O)[C@@H](c2cc(N3CCC(C(=O)N4CC(c5ccc6cc(-c7ccccc7O)nnc6c5)C4)CC3)no2)C(C)C)cc1 [Compound 45] | A (“A” indicates maximum degradation ≥75%) | – |
| < 0.01 µM | > 75% | < 0.01 µM | Cc1ncsc1-c1ccc([C@H](C)NC(=O)[C@@H]2C[C@@H](O)CN2C(=O)[C@@H](c2cc(N3CC4(CC(c5ccc6nnc(-c7ccccc7O)cc6c5)C4)C3)no2)C(C)C)cc1 [Compound 48, (2S,4R)-4-hydroxy-1-((R)-2-(3-(6-(3-(2-hydroxyphenyl)cinnolin-6-yl)-2-azaspiro[3.3]heptan-2-yl)isoxazol-5-yl)-3-methylbutanoyl)-N-((S)-1-(4-(4-methylthiazol-5-yl)phenyl)ethyl)pyrrolidine-2-carboxamide] | A (“A” indicates maximum degradation ≥75%) | – |
| < 0.01 µM | > 75% | < 0.01 µM | Cc1ncsc1-c1ccc([C@H](C)NC(=O)[C@@H]2C[C@@H](O)CN2C(=O)[C@@H](c2cc(-c3cnc(N4CC[C@H](c5ccc6nnc(-c7ccccc7O)cc6c5)C4)nc3)no2)C(C)C)cc1 [Compound 49, (2S,4R)-4-hydroxy-1-((R)-2-(3-(2-((R)-3-(3-(2-hydroxyphenyl)cinnolin-6-yl)pyrrolidin-1-yl)pyrimidin-5-yl)isoxazol-5-yl)-3-methylbutanoyl)-N-((S)-1-(4-(4-methylthiazol-5-yl)phenyl)ethyl)pyrrolidine-2-carboxamide] | A (“A” indicates maximum degradation ≥75%) | – |
| < 0.01 µM | > 50% | – | Cc1ncsc1-c1ccc([C@H](C)NC(=O)[C@@H]2C[C@@H](O)CN2C(=O)[C@@H](c2cc(-c3cnc(N4CC[C@@H](c5ccc6nnc(-c7ccccc7O)cc6c5)C4)nc3)no2)C(C)C)cc1 [Compound 50, (2S,4R)-4-hydroxy-1-((R)-2-(3-(2-((S)-3-(3-(2-hydroxyphenyl)cinnolin-6-yl)pyrrolidin-1-yl)pyrimidin-5-yl)isoxazol-5-yl)-3-methylbutanoyl)-N-((S)-1-(4-(4-methylthiazol-5-yl)phenyl)ethyl)pyrrolidine-2-carboxamide] | A (“A” indicates maximum degradation ≥75%) | – |
| < 0.01 µM | > 75% | > 0.01 µM | Cc1ncsc1-c1ccc([C@H](C)NC(=O)[C@@H]2C[C@@H](O)CN2C(=O)[C@@H](c2cc(-c3ccnc(N4CCC(c5ccc6cc(-c7ccccc7O)nnc6c5)CC4)n3)no2)C(C)C)cc1 [Compound 52, (2S,4R)-4-hydroxy-1-((R)-2-(3-(2-(4-(3-(2-hydroxyphenyl)cinnolin-7-yl)piperidin-1-yl)pyrimidin-4-yl)isoxazol-5-yl)-3-methylbutanoyl)-N-((S)-1-(4-(4-methylthiazol-5-yl)phenyl)ethyl)pyrrolidine-2-carboxamide] | A (“A” indicates maximum degradation ≥75%) | – |
| < 0.01 µM | > 50% | > 0.01 µM | Cc1ncsc1-c1ccc([C@H](C)NC(=O)[C@@H]2C[C@@H](O)CN2C(=O)[C@@H](c2cc(N3CCC4(CC3)CN(c3ccc5cc(-c6ccccc6O)nnc5c3)C4)no2)C(C)C)cc1 [Compound 53, (2S,4R)-4-hydroxy-1-((R)-2-(3-(2-(3-(2-hydroxyphenyl)cinnolin-7-yl)-2,7-diazaspiro[3.5]nonan-7-yl)isoxazol-5-yl)-3-methylbutanoyl)-N-((S)-1-(4-(4-methylthiazol-5-yl)phenyl)ethyl)pyrrolidine-2-carboxamide] | A (“A” indicates maximum degradation ≥75%) | – |

— patent US20260193264A1, “BENZOYPARAZINE PYRAZINES AND THEIR USES” (FOGHORN THERAPEUTICS INC., priority 2022, published 2026)
